# Test results as given in US12448395B2 (BRISTOL-MYERS SQUIBB COMPANY, priority 2019, dated 2025).
# Biological target: T1, human TLR9 (Homo sapiens, UniProt Q9NR96)
# T1 sequence (Q9NR96 26-1032): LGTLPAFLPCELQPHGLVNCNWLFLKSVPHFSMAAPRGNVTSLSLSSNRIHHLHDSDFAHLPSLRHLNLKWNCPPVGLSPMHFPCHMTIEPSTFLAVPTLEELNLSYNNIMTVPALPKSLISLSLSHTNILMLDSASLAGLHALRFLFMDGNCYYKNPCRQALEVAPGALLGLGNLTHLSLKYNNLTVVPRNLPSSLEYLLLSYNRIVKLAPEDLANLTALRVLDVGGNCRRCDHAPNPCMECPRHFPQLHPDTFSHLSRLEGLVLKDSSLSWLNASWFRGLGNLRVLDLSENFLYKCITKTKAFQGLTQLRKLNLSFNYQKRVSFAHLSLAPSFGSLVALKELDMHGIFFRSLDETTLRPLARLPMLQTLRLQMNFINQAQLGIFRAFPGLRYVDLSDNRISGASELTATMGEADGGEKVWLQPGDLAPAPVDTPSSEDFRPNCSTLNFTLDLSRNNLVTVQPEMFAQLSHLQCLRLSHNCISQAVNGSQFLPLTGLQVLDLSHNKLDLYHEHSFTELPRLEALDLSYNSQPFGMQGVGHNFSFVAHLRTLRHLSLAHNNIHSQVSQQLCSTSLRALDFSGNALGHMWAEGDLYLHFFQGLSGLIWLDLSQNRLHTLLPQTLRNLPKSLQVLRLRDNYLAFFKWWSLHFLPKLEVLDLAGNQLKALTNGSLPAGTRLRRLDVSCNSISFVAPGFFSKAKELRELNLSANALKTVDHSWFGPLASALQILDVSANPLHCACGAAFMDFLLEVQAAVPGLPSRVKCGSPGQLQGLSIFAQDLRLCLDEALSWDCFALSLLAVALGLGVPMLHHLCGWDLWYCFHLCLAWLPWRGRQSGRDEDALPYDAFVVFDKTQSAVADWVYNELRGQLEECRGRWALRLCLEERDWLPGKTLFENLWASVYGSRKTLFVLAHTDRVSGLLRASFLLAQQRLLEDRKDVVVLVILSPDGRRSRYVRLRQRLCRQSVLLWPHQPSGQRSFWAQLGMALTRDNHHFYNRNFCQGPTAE
# Test: TLR9 inhibition reporter assay (HEK-Blue SEAP, ODN2006 stimulation)
# Format: cell-based
# Settings: HEK-Blue cells overexpressing human TLR9, ODN2006 5 nM
# Method: TLR7/8/9 Inhibition Reporter Assays
# HEK-Blue™-cells (Invivogen) overexpressing human TLR7, TLR8 or TLR9 receptors were used for screening inhibitors of these receptors using an inducible SEAP (secreted embryonic alkaline phosphatase) reporter gene under the control of the IFN-β minimal promoter fused to five NF-κB and AP-1-binding sites. Briefly, cells are seeded into Greiner 384 well plates (15000 cells per well for TLR7, 20,000 for TLR8 and 25,000 for TLR9) and then treated with test compounds in DMSO to yield a final dose response concentration range of 0.05 nM-50 μM. After a 30 minute compound pre-treatment at room temperature, the cells are then stimulated with a TLR7 ligand (gardiquimod at a final concentration of 7.5 μM), TLR8 ligand (R848 at a final concentration of 15.9 μM) or TLR9 ligand (ODN2006 at a final concentration of 5 nM) to activate NF-κB and AP-1 which induce the production of SEAP. After a 22 hour incubation at 37° C., 5% CO2, SEAP levels are determined with the addition of HEK-Blue™ Detection reagent (Invivogen), a cell culture medium that allows for detection of SEAP, according to manufacturer's specifications. The percent inhibition is determined as the % reduction in the HEK-Blue signal present in wells treated with agonist plus DMSO alone compared to wells treated with a known inhibitor.
row,IC50 [µM],SMILES
1,> 50,"Cc1c(-c2[nH]c3sc(C(=O)N4CCN(S(C)(=O)=O)CC4)nc3c2C(C)C)cn2ncnc2c1C [Example 384, (5-(7,8-dimethyl-[1,2,4]triazolo[1,5-a]pyridin-6-yl)-6-isopropyl-4H-pyrrolo[3,2-d]thiazol-2-yl)(4-(methylsulfonyl)piperazin-1-yl) methanone]"
2,> 50,"Cc1c(-c2[nH]c3sc(CNCC(N)=O)nc3c2C(C)C)cn2ncnc2c1C [Example 402, 2-(((5-(7,8-dimethyl-[1,2,4]triazolo[1,5-a]pyridin-6-yl)-6-isopropyl-4H-pyrrolo[3,2-d]thiazol-2-yl)methyl)amino)acetamide]"
3,> 50,"COC1CN(C(=O)c2nc3c(C(C)C)c(-c4cc(C)c5ncnn5c4)[nH]c3s2)C1 [Example 396, (6-isopropyl-5-(8-methyl-[1,2,4]triazolo[1,5-a]pyridin-6-yl)-4H-pyrrolo[3,2-d]thiazol-2-yl)(3-methoxyazetidin-1-yl)methanone]"
4,> 50,"Cc1cc(-c2[nH]c3sc(N4CCN(C(=O)CN(C)C)C[C@H]4C)nc3c2C(C)C)cn2ncnc12 [Example 360, (R)-2-(dimethylamino)-1-(4-(6-isopropyl-5-(8-methyl-[1,2,4]triazolo[1,5-a]pyridin-6-yl)-4H-pyrrolo[3,2-d]thiazol-2-yl)-3-methylpiperazin-1-yl)ethan-1-one]"
5,> 50,"Cc1c(-c2[nH]c3sc(CN4CCNC(=O)C4)nc3c2C(C)C)cn2ncnc2c1C [Example 406, 4-((5-(7,8-dimethyl-[1,2,4]triazolo[1,5-a]pyridin-6-yl)-6-isopropyl-4H-pyrrolo[3,2-d]thiazol-2-yl)methyl) piperazin-2-one]"
6,> 50,"Cc1c(-c2[nH]c3sc(N4CCN(CCS(C)(=O)=O)CC4)nc3c2C(C)C)cn2ncnc2c1C [Example 282, 5-(7,8-dimethyl-[1,2,4]triazolo[1,5-a]pyridin-6-yl)-6-isopropyl-2-(4-(2-(methylsulfonyl)ethyl)piperazin-1-yl)-4H-pyrrolo[3,2-d]thiazole]"
7,> 50,"Cc1c(-c2[nH]c3sc(C(=O)NCCCN4CCCC4=O)nc3c2C(C)C)cn2ncnc2c1C [Example 371, 5-(7,8-dimethyl-[1,2,4]triazolo[1,5-a]pyridin-6-yl)-6-isopropyl-N-(3-(2-oxopyrrolidin-1-yl)propyl)-4H-pyrrolo[3,2-d]thiazole-2-carboxamide]"
8,> 50,Cc1c(-c2[nH]c3sc(N4CCN(C5CCC5)C[C@@H]4C)nc3c2C(C)C)cn2ncnc2c1C [Example 349]

row,SMILES,IC50 [µM]
1,"Cc1c(-c2[nH]c3sc(CN4CC5(C4)CS(=O)(=O)C5)nc3c2C(C)C)cn2ncnc2c1C [Example 403, 6-((5-(7,8-dimethyl-[1,2,4]triazolo[1,5-a]pyridin-6-yl)-6-isopropyl-4H-pyrrolo[3,2-d]thiazol-2-yl)methyl)-2-thia-6-azaspiro[3.3]heptane 2,2-dioxide]",> 50
